Experiments:
[1] = molecular target: T1, recombinant human Lp-PLA2 (Homo sapiens, UniProt Q13093); experiment: Recombinant human Lp-PLA2 assay (rhLp-PLA2, PED6 assay); format: biochemical; settings: lower bounds; read-out: pIC50 values in the PED6 assay (converted)
T1 sequence (Q13093 22-441): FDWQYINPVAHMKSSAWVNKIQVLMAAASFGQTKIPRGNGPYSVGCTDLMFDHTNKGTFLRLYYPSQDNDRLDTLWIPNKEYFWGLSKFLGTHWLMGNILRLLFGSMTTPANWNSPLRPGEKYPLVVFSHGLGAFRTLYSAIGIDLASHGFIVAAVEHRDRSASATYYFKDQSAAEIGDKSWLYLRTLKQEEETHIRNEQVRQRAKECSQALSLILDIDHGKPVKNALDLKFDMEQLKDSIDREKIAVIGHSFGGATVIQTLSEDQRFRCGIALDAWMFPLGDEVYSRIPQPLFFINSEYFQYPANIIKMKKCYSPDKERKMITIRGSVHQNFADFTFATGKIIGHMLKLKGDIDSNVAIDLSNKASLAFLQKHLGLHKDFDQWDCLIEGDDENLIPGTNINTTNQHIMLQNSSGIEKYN
Description: (1) Recombinant Human Lp-PLA2 Assay (rhLp-PLA2) (Also Referred to as “PED6” Assay)
N-((6-(2,4-dinitrophenyl)amino)-hexanoyl)-2-(4,4-difluoro-5,7-dimethyl-4-bora-3a,4a-diaza-s-indacene-3-pentanoyl)-1-hexadecanoyl-sn-glycero-3-phosphoethanolamine, triethylammonium salt (PED6) is a commercially available fluorescently-labeled phospholipid, which is commercially available from Invitrogene and Molecular Probes. There is a quenching […] and a Bodipy fluorescein (FL) group in the sn2 position. Upon cleavage with Lp-PLA2, the Bodipy FL group is liberated and then may result in an increase in fluorescence. Inhibitors of Lp-PLA2 therefore prevent this cleavage and no fluorescent increase is observed.
The PED6 assay was run as an unquenched 10 μL assay. The source plate containing the compounds to be tested was prepared by making 1:3 (by volume) serial dilution of the compounds within DMSO on 384-well microplate. Then, 0.01 μL of the compounds on compound source plate were transferred into 384 well Greiner 784076 (black) plates using ECHO liquid dispenser. 5 μL of recombinant human Lp-PLA2 enzyme (4 nM (or […]) rhLp-PLA2 in assay buffer of 50 mM HEPES, pH 7.4, 150 mM NaCl, 1 mM CHAPS) was added to each well of the plate. Plates were centrifuged for 10 sec at 500 rpm. After 30 minutes preincubation, 5 μL of substrate ([…] PED6 [from 5 mM DMSO stock] in assay buffer of 50 mM HEPES, pH 7.4, 150 mM NaCl, 1 mM CHAPS) was added to 384 well Greiner 784076 (black) plates. Plates were centrifuged for 10 sec at 500 rpm. The plate was covered to protect it from light and incubated for 20 min at room temperature. The plates were read for fluorescence intensity at ex: 480/em: 540 using ViewLux microplate imager for Envision spectrofluoroimeters pIC50 data, curve and QC analysis was conducted by using XL fit module in Excel.

Lp-PLA2 in human plasma = molecular target: T2, Lp-PLA2 in human plasma (Homo sapiens, UniProt Q13093); experiment: Lp-PLA2 human plasma assay (Thio-PAF assay); format: biochemical; settings: pooled human plasma; lower bounds; read-out: pIC50 values in the thio-PAF assay (converted)
T2 construct: from tissue; host or cells: pooled human plasma
T2 sequence (Q13093 22-441): T1 sequence (Q13093 22-441)
Description: (3) Lipoprotein-Associated Phospholipase A2 (Lp-PLA2) Human Plasma Assay (Also Referred to as “Thio-PAF assay”)
The human plasma assay utilizes a thioester analog of PAF (phosphatidylcholine), where hydrolysis yields to the formation of a phospholipid containing a free thiol group. The amount of thiol is quantitated continuously by reacting with CPM (7-diethylamino-3-(4′-maleimidylphenyl)-4-methylcoumarin), a maleimide which increases in fluoresence after Michael addition of thiols. This assay may detect the activity of Lp-PLA2 in human plasma, as determined by specific inhibition by Lp-PLA2 inhibitors.
The thio-PAF assay was run as a quenched 15 μL assay. Compounds source plate was prepared by making 1:3 (by volume) serial dilution of the compounds into pure DMSO on 384-well microplate. 0.01 μL of compounds on compound source plate were transferred to 384 well Greiner 784076 (black) low-volume plates by ECHO liquid dispenser. 8 μL pooled human plasma, which was previously aliquoted and frozen, was added. Plates were centrifuged for 10 sec at 500 rpm. After 30 minutes preincubation, 2 μL of substrate solution comprising 2.5 mM 2-thio-PAF [from ethanol stock], 32 μM CPM [from a DMSO stock] and 3.2 mM NEM (N-ethylmaleimide) [made fresh daily in DMSO] in assay buffer of 50 mM HEPES, pH 7.4, 150 mM NaCl, 1 mM CHAPS was added to 384 well Greiner 784076 (black) low-volume plates by BRAVO liquid handling station. After 2 mins, reaction was quenched with 5 μL of 5% aqueous trifluoroacetic acid (TFA). Plates were covered to protect from light and incubated for 40 min at room temperature. Plates were read at ex: 380/em: 485 using-Envision microplate reader. PIC50 data, curve and QC analysis were conducted by using XLFit module in Excel.

SMILES	IC50 [1] [nM]	IC50 (Lp-PLA2 in human plasma) [nM]
C[C@H]1Cn2c(cc(OCc3ccc(Oc4cccc(F)c4)c(F)c3)nc2=O)N1C [Example E27, (S)-7-((3-fluoro-4-(3-fluorophenoxy)benzyl)oxy)-1,2-dimethyl-2,3-dihydroimidazo-[1,2-c]pyrimidin-5(1H)-one]	≤ 10	
CN1c2cc(OCc3cc(F)c(F)cc3F)nc(=O)n2CC1(C)C [Example E115, 1,2,2-trimethyl-7-((2,4,5-trifluorobenzyl)oxy)-2,3-dihydroimidazo[1,2-c]pyrimidin-5(1H)-one]		≤ 100
[2H]C([2H])(Oc1cc2n(c(=O)n1)C[C@H](C)N2C)c1ccc(F)c(F)c1 [Example E22, (S)-7-(dideutero(3,4-difluorophenyl)methoxy)-1,2-dimethyl-2,3-dihydroimidazo[1,2-c]pyrimidin-5(1H)-one]	≤ 10	
C[C@H]1Cn2c(cc(OCc3ccc(Oc4ccc(C(F)(F)F)nc4)c(F)c3)nc2=O)N1 [Example E62, (S)-7-((3-fluoro-4-((6-(trifluoromethyl)pyridin-3-yl)oxy)benzyl)oxy)-2-methyl-2,3-dihydroimidazo[1,2-c]pyrimidin-5(1H)-one]	≤ 1	
C[C@H]1Cn2c(cc(OCc3cc(F)c(Oc4ccc(F)c(F)c4)c(F)c3)nc2=O)N1C [Example E126, (S)-7-((4-(3,4-difluorophenoxy)-3,5-difluorobenzyl)oxy)-1,2-dimethyl-2,3-dihydroimidazo[1,2-c]pyrimidin-5(1H)-one]	≤ 1	
C[C@H]1Cn2c(cc(OCc3ccc(Oc4ccc(F)cc4)c(F)c3)nc2=O)N1C [Example E94, (S)-7-((3-fluoro-4-(4-fluorophenoxy)benzyl)oxy)-1,2-dimethyl-2,3-dihydroimidazo[1,2-c]pyrimidin-5(1H)-one]	≤ 10	
CN1c2cc(OCc3cc(F)ccc3F)nc(=O)n2CC1(C)C [Example E92, 7-((2,5-difluorobenzyl)oxy)-1,2,2-trimethyl-2,3-dihydroimidazo[1,2-c]pyrimidin-5(1H)-one]	≤ 10	
C[C@H]1Cn2c(cc(OCc3ccc(Oc4ccc(F)cc4)c(C#N)c3)nc2=O)N1C [Example E57, (S)-5-(((1,2-dimethyl-5-oxo-1,2,3,5-tetrahydroimidazo[1,2-c]pyrimidin-7-yl)oxy)methyl)-2-(4-fluorophenoxy)benzonitrile]	≤ 1	
C[C@H]1Cn2c(cc(OCc3ccc(Oc4cncc(C#N)c4)c(F)c3)nc2=O)N1C [Example E24, (S)-5-(4-(((1,2-dimethyl-5-oxo-1,2,3,5-tetrahydroimidazo[1,2-c]pyrimidin-7-yl)ox-y)methyl)-2-fluorophenoxy)nicotinonitrile]	≤ 10	
CN1c2cc(OCCc3ccc(F)c(F)c3)nc(=O)n2CC1(C)C [Example E117, 7-(3,4-difluorophenethoxy)-1,2,2-trimethyl-2,3-dihydroimidazo[1,2-c]pyrimidin-5(1H)-one]		≤ 100
N#Cc1cc(COc2cc3n(c(=O)n2)CCN3C2CC2)ccc1Oc1ccc(F)c(F)c1 [Example E118, 5-(((1-cyclopropyl-5-oxo-1,2,3,5-tetrahydroimidazo[1,2-c]pyrimidin-7-yl)oxy)methyl)-2-(3,4-difluorophenoxy)benzonitrile]	≤ 10	
C[C@@H]1Cn2c(cc(OCc3cccc(C#N)c3)nc2=O)N1C [Example E33, (R)-3-(((1,2-dimethyl-5-oxo-1,2,3,5-tetrahydroimidazo[1,2-c]pyrimidin-7-yl)oxy)methyl)benzonitrile]		≤ 100
C[C@H]1Cn2c(cc(OCc3cccc(C#N)c3)nc2=O)N1 [Example E109, (S)-3-(((2-methyl-5-oxo-1,2,3,5-tetrahydroimidazo[1,2-c]pyrimidin-7-yl)oxy)methyl)benzonitrile]		≤ 100
C[C@H]1Cn2c(cc(OCc3ccc(Oc4cccc(F)c4)c(F)c3)nc2=O)N1 [Example E28, (S)-7-((3-fluoro-4-(3-fluorophenoxy)benzyl)oxy)-2-methyl-2,3-dihydroimidazo[1,2-c]pyrimidin-5(1H)-one]	≤ 10	
C[C@H]1Cn2c(cc(OCc3cccc(C#N)c3)nc2=O)N1C [Example E72, (S)-3-(((1,2-dimethyl-5-oxo-1,2,3,5-tetrahydroimidazo[1,2-c]pyrimidin-7-yl)oxy)methyl)benzonitrile]		≤ 100
C[C@H]1Cn2c(cc(OCc3ccc(F)c(F)c3)nc2=O)N1 [Example E9, (S)-7-((3,4-difluorobenzyl)oxy)-2-methyl-2,3-dihydroimidazo[1,2-c]pyrimidin-5(1H)-one]	≤ 10	
CN1c2cc(OCc3ccc(Cl)c(F)c3)nc(=O)n2CC1(C)C [Example E36, 7-((4-chloro-3-fluorobenzyl)oxy)-1,2,2-trimethyl-2,3-dihydroimidazo[1,2-c]pyrimidin-5(1H)-one]	≤ 10	
CN1c2cc(OCc3cc(F)cc(Cl)c3)nc(=O)n2CC1(C)C [Example E125, 7-((3-chloro-5-fluorobenzyl)oxy)-1,2,2-trimethyl-2,3-dihydroimidazo[1,2-c]pyrimidin-5(1H)-one]	≤ 10	
C[C@H]1Cn2c(cc(OCc3ccc(Oc4ccc(F)cc4)c(F)c3)nc2=O)N1 [Example E130, (S)-7-((3-fluoro-4-(4-fluorophenoxy)benzyl)oxy)-2-methyl-2,3-dihydroimidazo[1,2c]pyrimidin-5(1H)-one]	≤ 10	
[2H]C([2H])(Oc1cc2n(c(=O)n1)C[C@H](C)N2C)c1cc(F)c(F)c(F)c1 [Example E86, (S)-7-(dideutero(3,4,5-trifluorophenyl)methoxy)-1,2-dimethyl-2,3-dihydroimidazo[1,2-c]pyrimidin-5(1H)-one]	≤ 10	
CN1c2cc(OCc3cccc(Cl)c3)nc(=O)n2CC1(C)C [Example E21, 7-((3-chlorobenzyl)oxy)-1,2,2-trimethyl-2,3-dihydroimidazo[1,2-c]pyrimidin-5(1H)-one]	≤ 10	
C[C@H]1Cn2c(cc(OCc3ccc(Oc4ccc(C(F)(F)F)nc4)c(F)c3)nc2=O)N1C [Example E6, (S)-7-((3-fluoro-4-((6-(trifluoromethyl)pyridin-3-yl)oxy)benzyl)oxy)-1,2-dimethyl-2,3-dihydroimidazo[1,2-c]pyrimidin-5(1H)-one]	≤ 1	
C[C@H]1Cn2c(cc(OCc3cc(F)c(Oc4cccc(F)c4)c(F)c3)nc2=O)N1C [Example E76, (S)-7-((3,5-difluoro-4-(3-fluorophenoxy)benzyl)oxy)-1,2-dimethyl-2,3-dihydroimidazo[1,2-c]pyrimidin-5(1H)-one]	≤ 1	
O=c1nc(OCc2ccc(Oc3ccc(Cl)c(C(F)(F)F)c3)cc2)cc2n1CCN2C1CC1 [Example E17, 7-((4-(4-chloro-3-(trifluoromethyl)phenoxy)benzyl)oxy)-1-cyclopropyl-2,3-dihydroimidazo[1,2-c]pyrimidin-5(1H)-one]	≤ 10	
